From patent US9108944B2, “Androgen receptor modulators and uses thereof” (ARAGON PHARMACEUTICALS, INC., priority 2010, dated 2015)

The molecules below were run against T1, AR-VP16 (Homo sapiens, UniProt P10275) (assay: AR-VP16 DNA Binding Assay, antagonist mode (HepG2 cells, 0.1 nM R1881)).
T1 sequence (P10275 560-920 limits assumed): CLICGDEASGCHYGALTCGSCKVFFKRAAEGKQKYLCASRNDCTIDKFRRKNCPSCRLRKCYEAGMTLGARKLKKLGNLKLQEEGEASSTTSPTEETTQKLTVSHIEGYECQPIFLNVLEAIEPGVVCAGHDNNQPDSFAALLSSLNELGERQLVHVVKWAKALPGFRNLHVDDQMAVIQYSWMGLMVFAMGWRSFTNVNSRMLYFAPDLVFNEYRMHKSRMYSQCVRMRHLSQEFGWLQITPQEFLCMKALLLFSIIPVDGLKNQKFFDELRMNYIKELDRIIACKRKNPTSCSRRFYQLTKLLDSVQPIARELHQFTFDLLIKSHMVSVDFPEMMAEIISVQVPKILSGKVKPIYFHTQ
Format: cell-based
Experimental: Cells were transiently transfected using Lipofectin (Life Technologies) according to the manufacturer's protocol. […] Transfected cells were incubated overnight then treated with ligand. […] For antagonist assays, the compounds were serially diluted and 50 μL of compound with RPMI supplemented with charcoal stripped serum plus methyltrienolone (R1881) were added to the cells. The final R1881 concentration used in the antagonist assays was 0.1 nM. Following 48 hour incubation the medium was removed and the cells were lysed in 40 μL of lysis buffer (25 mM Tris Phosphate, 2 mM CDTA, 10% Glycerol, 0.5% Triton X-100, 2 mM DTT).

Q: How did the IC50 turn out when `Cc1cc(N2C(=O)C3(CCC3)N(c3ccc(OCCN4CCN(CC(F)(F)F)CC4)cc3)C2=S)cnc1C#N` [Compound 199, 3-Methyl-5-(8-oxo-6-thioxo-5-(4-(2-(4-(2,2,2-trifluoroethyl)piperazin-1-yl)ethoxy)phenyl)-5,7-diazaspiro[3.4]octan-7-yl)picolinonitrile] was run?
A: < 1 µM

Q: Which IC50 does the source give for `CN1CCC(Oc2ccc(N3C(=S)N(c4cnc(C#N)c(C(F)(F)F)c4)C(=O)C34CCC4)cc2F)CC1` [Compound 193, 5-(5-(3-Fluoro-4-((1-methylpiperidin-4-yl)oxy)phenyl)-8-oxo-6-thioxo-5,7-diazaspiro[3.4]octan-7-yl)-3-(trifluoromethyl)picolinonitrile] here?
A: < 1 µM

Q: Which IC50 does the source give for `N#Cc1ncc(N2C(=O)C3(CCC3)N(c3ccc(OCCCN4CCCC4)c(F)c3)C2=S)cc1C(F)(F)F` [Compound 185, 5-(5-(3-Fluoro-4-(3-(pyrrolidin-1-yl)propoxy)phenyl)-8-oxo-6-thioxo-5,7-diazaspiro[3.4]octan-7-yl)-3-(trifluoromethyl)picolinonitrile] here?
A: < 1 µM

Q: With `CNC(=O)c1ccc(N2C(=S)N(c3ccc(C#N)c4ncccc34)C(=O)C23CCC3)cc1F` [Compound 37, 4-(7-(8-Cyanoquinolin-5-yl)-8-oxo-6-thioxo-5,7-diazaspiro[3.4]octan-5-yl)-2-fluoro-N-methylbenzamide] as the molecule, how does the IC50 read?
A: < 1 µM

Q: Which IC50 does the source give for `N#Cc1ncc(N2C(=O)C3(CCC3)N(C3CCCCC3)C2=S)cc1C(F)(F)F` [Compound 53, 5-(5-Cyclohexyl-8-oxo-6-thioxo-5,7-diazaspiro[3.4]octan-7-yl)-3-(trifluoromethyl)picolinonitrile] here?
A: < 1 µM

Q: For `N#Cc1ncc(N2C(=O)C3(CCC3)N(c3ccccc3)C2=S)cc1C(F)(F)F` [Compound 48, 5-(8-Oxo-5-phenyl-6-thioxo-5,7-diazaspiro[3.4]octan-7-yl)-3-(trifluoromethyl)picolinonitrile], which IC50 is on record?
A: < 1 µM

Q: Which IC50 does the source give for `CN(Cc1ccncc1)Cc1ccc(N2C(=S)N(c3cnc(C#N)c(C(F)(F)F)c3)C(=O)C23CCC3)cc1` [Compound 92, 5-(5-(4-((Methyl(pyridin-4-ylmethyl)amino)methyl)phenyl)-8-oxo-6-thioxo-5,7-diazaspiro[3.4]octan-7-yl)-3-(trifluoromethyl)picolinonitrile] here?
A: < 1 µM

Q: Which IC50 does the source give for `CNC(=O)c1ccc(N2C(=S)N(c3cnc(C#N)c(C)c3)C(=O)C2(C)C)cc1F` [Compound 47, 4-(3-(6-Cyano-5-methylpyridin-3-yl)-5,5-dimethyl-4-oxo-2-thioxoimidazolidin-1-yl)-2-fluoro-N-methylbenzamide] here?
A: < 1 µM

Q: With `CNS(=O)(=O)c1ccc(N2C(=S)N(c3cnc(C#N)c(C(F)(F)F)c3)C(=O)C23CCC3)cc1` [Compound 120, 4-(7-(6-Cyano-5-(trifluoromethyl)pyridin-3-yl)-8-oxo-6-thioxo-5,7-diazaspiro[3.4]octan-5-yl)-N-methylbenzenesulfonamide] as the molecule, how does the IC50 read?
A: > 1 µM

Q: With `COCCNC(=O)c1ccc(N2C(=S)N(c3cnc(C#N)c(C(F)(F)F)c3)C(=O)C23CCC3)cc1F` [Compound 248, 4-(7-(6-Cyano-5-(trifluoromethyl)pyridin-3-yl)-8-oxo-6-thioxo-5,7-diazaspiro[3.4]octan-5-yl)-2-fluoro-N-(2-methoxyethyl)benzamide] as the molecule, how does the IC50 read?
A: > 1 µM

Q: For `N#Cc1ncc(N2C(=O)C3(CCC3)N(c3ccc(C(=O)NC4CCCC4)c(F)c3)C2=S)cc1C(F)(F)F` [Compound 267, 4-(7-(6-Cyano-5-(trifluoromethyl)pyridin-3-yl)-8-oxo-6-thioxo-5,7-diazaspiro[3.4]octan-5-yl)-N-cyclopentyl-2-fluorobenzamide], which IC50 is on record?
A: < 1 µM

Q: `Cc1cc(N2C(=O)C3(CCC3)N(c3ccc(C(=O)Nc4ncco4)c(F)c3)C2=S)cnc1C#N` [Compound 300, 4-(7-(6-cyano-5-methylpyridin-3-yl)-8-oxo-6-thioxo-5,7-diazaspiro[3.4]octan-5-yl)-2-fluoro-N-(oxazol-2-yl)benzamide] was tested. Which IC50 did it give?
A: < 1 µM

Q: Which IC50 does the source give for `Cc1cc(N2C(=O)C3(CCC3)N(c3ccc(-c4cncnc4)cc3)C2=S)cnc1C#N` [Compound 103, 3-Methyl-5-(8-oxo-5-(4-(pyrimidin-5-yl)phenyl)-6-thioxo-5,7-diazaspiro[3.4]octan-7-yl)picolinonitrile] here?
A: < 1 µM

Q: `Cc1cncc(-c2ccc(N3C(=S)N(c4cnc(C#N)c(C)c4)C(=O)C34CCC4)cc2)c1` [Compound 98, 3-Methyl-5-(5-(4-(5-methylpyridin-3-yl)phenyl)-8-oxo-6-thioxo-5,7-diazaspiro[3.4]octan-7-yl)picolinonitrile] was tested. Which IC50 did it give?
A: < 1 µM

Q: How did the IC50 turn out when `Cc1cccc(N2C(=S)N(c3cnc(C#N)c(C(F)(F)F)c3)C(=O)C23CCC3)c1` [Compound 21, 5-(8-Oxo-6-thioxo-5-(m-tolyl)-5,7-diazaspiro[3.4]octan-7-yl)-3-(trifluoromethyl)picolinonitrile] was run?
A: < 1 µM

Q: `N#Cc1ncc(N2C(=O)C3(CCC3)N(c3ccc(Oc4cncnc4)cc3)C2=S)cc1C(F)(F)F` [Compound 42, 5-(8-Oxo-5-(4-(pyrimidin-5-yloxy)phenyl)-6-thioxo-5,7-diazaspiro[3.4]octan-7-yl)-3-(trifluoromethyl)picolinonitrile] was tested. Which IC50 did it give?
A: < 1 µM

Q: Which IC50 does the source give for `CNC(=O)c1ccc(N2C(=S)N(c3ccc(C#N)c4ccccc34)C(=O)C23CCC3)cc1F` [Compound 95, 4-(7-(4-Cyanonaphthalen-1-yl)-8-oxo-6-thioxo-5,7-diazaspiro[3.4]octan-5-yl)-2-fluoro-N-methylbenzamide] here?
A: < 1 µM

Q: How did the IC50 turn out when `N#Cc1ncc(N2C(=O)C3(CCC3)N(c3cc(F)ccc3F)C2=S)cc1C(F)(F)F` [Compound 74, 5-(5-(2,5-Difluorophenyl)-8-oxo-6-thioxo-5,7-diazaspiro[3.4]octan-7-yl)-3-(trifluoromethyl)picolinonitrile] was run?
A: < 1 µM

Q: With `N#Cc1ncc(N2C(=O)C3(CCC3)N(c3c(F)ccc(F)c3F)C2=S)cc1C(F)(F)F` [Compound 75, 5-(8-Oxo-6-thioxo-5-(2,3,6-trifluorophenyl)-5,7-diazaspiro[3.4]octan-7-yl)-3-(trifluoromethyl)picolinonitrile] as the molecule, how does the IC50 read?
A: < 1 µM

Q: Which IC50 does the source give for `Cc1cc(N2C(=O)C3(CCC3)N(c3ccc(C(=O)NCc4ccccc4)c(F)c3)C2=S)cnc1C#N` [Compound 273, N-Benzyl-4-(7-(6-cyano-5-methylpyridin-3-yl)-8-oxo-6-thioxo-5,7-diazaspiro[3.4]octan-5-yl)-2-fluorobenzamide] here?
A: < 1 µM

Q: With `CNC(=O)c1ccc(N2C(=S)N(c3cnc(C#N)c(C(F)(F)F)c3)C(=O)C2(C)C)cc1F` [Compound 43, 4-(3-(6-Cyano-5-(trifluoromethyl)pyridin-3-yl)-5,5-dimethyl-4-oxo-2-thioxoimidazolidin-1-yl)-2-fluoro-N-methylbenzamide] as the molecule, how does the IC50 read?
A: < 1 µM

Q: How did the IC50 turn out when `Cc1ccc(N2C(=S)N(c3ccc(C#N)n4nccc34)C(=O)C23CCC3)cc1` [Compound 82, 4-(8-Oxo-6-thioxo-5-(p-tolyl)-5,7-diazaspiro[3.4]octan-7-yl)pyrazolo[1,5-a]pyridine-7-carbonitrile] was run?
A: < 1 µM

Q: Which IC50 does the source give for `CN1CCN(CCCc2ccc(N3C(=S)N(c4cnc(C#N)c(C(F)(F)F)c4)C(=O)C34CCC4)cc2)CC1` [Compound 124, 5-(5-(4-(3-(4-Methylpiperazin-1-yl)propyl)phenyl)-8-oxo-6-thioxo-5,7-diazaspiro[3.4]octan-7-yl)-3-(trifluoromethyl)picolinonitrile] here?
A: < 1 µM

Q: `CNC(=O)CCCc1ccc(N2C(=S)N(c3cnc(C#N)c(C(F)(F)F)c3)C(=O)C23CCC3)cc1` [Compound 230, 4-(4-(7-(6-Cyano-5-(trifluoromethyl)pyridin-3-yl)-8-oxo-6-thioxo-5,7-diazaspiro[3.4]octan-5-yl)phenyl)-N-methylbutanamide] was tested. Which IC50 did it give?
A: < 1 µM

Q: Which IC50 does the source give for `Cc1cc(N2C(=O)C3(CCC3)N(c3ccc(C(=O)NC4CCOCC4)c(F)c3)C2=S)cnc1C#N` [Compound 310, 4-(7-(6-Cyano-5-methylpyridin-3-yl)-8-oxo-6-thioxo-5,7-diazaspiro[3.4]octan-5-yl)-2-fluoro-N-(tetrahydro-2H-pyran-4-yl)benzamide] here?
A: > 1 µM

Q: How did the IC50 turn out when `N#Cc1ncc(N2C(=O)C3(CCC3)N(c3ccc(OCc4cccnc4)c(F)c3)C2=S)cc1C(F)(F)F` [Compound 148, 5-(5-(3-Fluoro-4-(pyridin-3-ylmethoxy)phenyl)-8-oxo-6-thioxo-5,7-diazaspiro[3.4]octan-7-yl)-3-(trifluoromethyl)picolinonitrile] was run?
A: < 1 µM

Q: `N#Cc1ncc(N2C(=O)C3(CCC3)N(c3ccc(O)cc3F)C2=S)cc1C(F)(F)F` [Compound 64, 5-(5-(2-Fluoro-4-hydroxyphenyl)-8-oxo-6-thioxo-5,7-diazaspiro[3.4]octan-7-yl)-3-(trifluoromethyl)picolinonitrile] was tested. Which IC50 did it give?
A: < 1 µM

Q: With `COCCOc1ccc(N2C(=S)N(c3ccc(C#N)c4ncccc34)C(=O)C23CCC3)cc1F` [Compound 171, 5-(5-(3-Fluoro-4-(2-methoxyethoxy)phenyl)-8-oxo-6-thioxo-5,7-diazaspiro[3.4]octan-7-yl)quinoline-8-carbonitrile] as the molecule, how does the IC50 read?
A: < 1 µM

Q: Which IC50 does the source give for `CC(C)(O)CNC(=O)c1ccc(N2C(=S)N(c3cnc(C#N)c(C(F)(F)F)c3)C(=O)C23CCC3)cc1F` [Compound 285, 4-(7-(6-Cyano-5-(trifluoromethyl)pyridin-3-yl)-8-oxo-6-thioxo-5,7-diazaspiro[3.4]octan-5-yl)-2-fluoro-N-(2-hydroxy-2-methylpropyl)benzamide] here?
A: > 1 µM
